Results taken from article PMC11277004, “Di- and Triselenoesters—Promising Drug Candidates for the Future Therapy of Triple-Negative Breast Cancer” (International Journal of Molecular Sciences, 2024).

System: MCF-7 and MDA-MB-231 breast cancer cells
Test: Autophagy induction, summary statement over cell lines
Type: cell-based, human
Details: vs EDAG-8; 0.5 and 1 µM, 24 h
Experimental: The effects of the novel selenoesters and a reference compound (cisplatin) at concentrations of 0.5 and 1 µM (after 24 h) on the activation of the autophagy process in MCF-7, MDA-MB-231, and MCF-10A cells were evaluated utilizing the Autophagy Assay kit, Red (ImmunoChemistry Technologies, Bloomington, MN, USA) via flow cytometry (flow cytometer from BD FACSCanto II, BD Biosciences Systems, San Jose, CA, USA). The entire assay was performed according to the manufacturer’s instructions. After drug treatment, unfixed cells were washed and resuspended in PBS at a concentration of 5 × 10^5 cells/mL. Then, 490 µL each of the cell suspension was taken, transferred to test tubes, and 10 µL of Autophagy Probe, Red solution (previously diluted 1:5 in PBS) was added and incubated (30 min, 37 °C, in the dark). After incubation, the cells were washed and resuspended in cellular assay buffer, before finally adding fixative at a ratio of 1:5 (v/v). After this step, the prepared samples were immediately measured using a flow cytometer (BD FACSCanto II; 10,000 events measured), and the percentage of cells with an occurring autophagy process was calculated using the FACSDiva 6.0 software (both from BD Biosciences Systems, San Jose, CA, USA). The equipment calibration was performed using the BD Cytometer Setup and Tracking Beads (BD Biosciences, San Diego, CA, USA).

CC(=O)C[Se]C(=O)c1ccc(C(=O)[Se]CC(C)=O)cc1 [EDAG-1, Se,Se-bis(2-oxopropyl) benzene-1,4-bis(carboselenoate)]
fold weaker pro-autophagic activity compared to the most active derivative: approximately 2 fold
